Test results as given in ChEMBL document CHEMBL3853342, “Design, synthesis and biological evaluation of novel benzo-α-pyrone containing piperazine derivatives as potential BRAFV600E inhibitors” (Bioorg Med Chem Lett, 2016).

Assays:
[1] = Antiproliferative activity against human WM266.4 cells harboring BRAF V600E mutant assessed as cell growth inhibition after 24 hrs by MTT assay; type: functional, cell-based; settings: WM 266-4, 24 h
[2] = Antiproliferative activity against human A375 cells assessed as cell growth inhibition after 24 hrs by MTT assay; type: functional, cell-based; settings: A-375, 24 h
[3] = target: Serine/threonine-protein kinase B-raf (Homo sapiens, UniProt P15056, V600E); experiment: Inhibition of human recombinant GST-tagged BRAF catalytic domain (416 to 766 residues) V600E mutant expressed in baculovirus expression system preincubated for 1 hr followed by human full length recombinant N-terminal His-tagged MEK1 substrate addition measured after 25 mins by gel electrophoresis method
[4] = Antiproliferative activity against human WM1361 cells assessed as cell growth inhibition after 24 hrs by MTT assay; type: functional, cell-based; settings: WM1361, 24 h
[5] = Cytotoxicity against human 293T cells assessed as cell growth inhibition after 24 hrs by MTT assay; type: toxicity, cell-based, HEK-293T

Chain of Serine/threonine-protein kinase B-raf (P15056 2-766 V600E limits assumed): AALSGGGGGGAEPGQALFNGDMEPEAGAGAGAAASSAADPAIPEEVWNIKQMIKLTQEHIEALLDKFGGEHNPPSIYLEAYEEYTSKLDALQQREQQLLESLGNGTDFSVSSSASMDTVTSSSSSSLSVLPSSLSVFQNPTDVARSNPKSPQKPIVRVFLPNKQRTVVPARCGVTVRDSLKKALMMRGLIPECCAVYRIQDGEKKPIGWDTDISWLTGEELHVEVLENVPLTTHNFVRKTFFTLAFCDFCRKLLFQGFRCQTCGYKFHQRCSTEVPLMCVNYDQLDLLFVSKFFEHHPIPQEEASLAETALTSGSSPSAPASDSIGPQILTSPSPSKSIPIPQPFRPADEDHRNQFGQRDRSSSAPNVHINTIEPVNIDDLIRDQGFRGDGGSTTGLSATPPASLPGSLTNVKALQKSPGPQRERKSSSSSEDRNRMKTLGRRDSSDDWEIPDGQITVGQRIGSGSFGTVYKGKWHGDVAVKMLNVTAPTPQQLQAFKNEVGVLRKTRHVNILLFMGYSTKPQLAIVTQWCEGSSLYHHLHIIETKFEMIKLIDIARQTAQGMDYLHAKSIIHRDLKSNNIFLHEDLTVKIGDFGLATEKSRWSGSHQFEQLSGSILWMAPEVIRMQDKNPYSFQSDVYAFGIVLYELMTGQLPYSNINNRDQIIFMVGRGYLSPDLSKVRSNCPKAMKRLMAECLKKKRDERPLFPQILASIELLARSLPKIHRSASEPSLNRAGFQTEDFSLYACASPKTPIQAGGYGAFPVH

SMILES | IC50 [1] [µM] | IC50 [2] [µM] | IC50 [3] [µM] | IC50 [4] [µM] | CC50 at 24 h [5] [µM]
O=c1oc2ccccc2c(N2CCN(c3ccc(F)cc3)CC2)c1CO | 23.4 | 24.7 | 17.8 | > 50 | > 50
CCCS(=O)(=O)Nc1ccc(F)c(C(=O)c2c[nH]c3ncc(-c4ccc(Cl)cc4)cc23)c1F [VEMURAFENIB] | 0.07 | 0.21 |  | 1.86 | > 50
O=c1oc2ccccc2c(N2CCN(c3cccc(Cl)c3)CC2)c1CO | 46.3 | 40.5 | 33.5 | > 50 | > 50
COc1cccc(N2CCN(c3c(CO)c(=O)oc4ccccc34)CC2)c1 | 5.33 | 6.51 | 1.76 | 38.1 | > 50
COc1ccc(N2CCN(c3c(CO)c(=O)oc4ccccc34)CC2)cc1 | 5.61 | 7.23 | 1.84 | 40.4 | > 50
O=c1oc2ccccc2c(N2CCN(c3ccccc3F)CC2)c1CO | 37.6 | 32.1 | 22 | > 50 | > 50
O=c1oc2ccccc2c(N2CCN(C(c3ccccc3)c3ccc(Cl)cc3)CC2)c1CO (centres undefined) | 2.74 | 3.89 | 0.92 | 30.2 | > 50
COc1ccccc1N1CCN(c2c(CO)c(=O)oc3ccccc23)CC1 | 18.3 | 20 | 10.1 | > 50 | > 50
